Laboratory results published in patent EP4813979A1, “COMPOUND FOR EGFR PROTEIN DEGRADATION AND USE THEREOF” (TYK Medicines, Inc., priority 2023, dated 2025).

Columns and labels:
Experiment in all cases: Cell anti-proliferation experiment (CTG)
Format in all cases: cell-based
[1] = test system: PC-9; conditions: Homo sapiens, PC-9, 72 h, PC-9 (EGFR exon 19 deletion)
Excerpt: (§1) H1975 has an EGFR: T790M/L858R double mutation, PC-9 has an EGFR exon 19 deletion, and HCC827 has an exon 19 deletion mutation. Baf3-19del- T790M -C797S (Baf3-DTC) is a stable Ba/F3 clone expressing exogenous EGFR gene bearing T790M, C797S, and […] triple amino acid mutations, purchased from KYinno. Baf3-L858R-T790M - C797S (Baf3-LTC) is a stable Ba/F3 clone expressing exogenous EGFR gene bearing […], T790M, and C797S triple mutations, purchased from KYinno. A549 is a wild-type EGFR, purchased from Nanjing Kebai Biotechnology. A431 is a wild-type EGFR, purchased from Shanghai Xinyu Biotechnology. CellCounting-Lite2.0, Trypsin EDTA, 37°C CO2 incubator, cell counter, EnVision Serial No. 1050454.
(§2) • A) Digested logarithmic phase cells with Trypsin EDTA, added culture medium to stop the reaction, and mixing well with a pipette to prepare a cell suspension. • B) Used Vi-cell to determine cell concentration, and prepared a suspension of 15,000-25,000 cells per milliliter according to the experimental purpose and cell characteristics. • C) After prepared the cell suspension, mixed it gently and added 100 µL to each well, so that the cell density to be tested is 1500-2500 per well.
(§3) • A) Weighed approximately 2 mg the compound and calculated the required volume of DMSO according to the formula: Compound mass (mg) * Compound purity (%) / Compound molecular weight * 1000. • B) Placed the inoculated cell culture plate into an incubator and incubated for about 24 hours. Then added compounds of varying concentrations. • C) Diluted the 10mM compound stock solution to […] with culture medium, and added the […] compound solution to the second column of the deep well plate in sequence, and added […] culture medium containing 0.5% DMSO to the third to eleventh columns. • D) Gradient dilution: Taked 125 µL solution from the second column and added it to the third column, mix well; then taked 125 µL solution from the third column and added it to the fourth column, repeated this operation until the tenth column. • E) Used a multichannel pipette, aspirated 25 µL the compound from the deep-well plate and added it to a 96-well culture plate. Repeated this process three times for each compound on the 96-well plate. This will ultimately create a concentration gradient of up to 10,000 nM at a 1:4 ratio on the 96-well plate.
(§4) • A) The effects of the compound were observed under an inverted microscope after the 96-well plate was incubated in an incubator for 72 hours. • B) Added 25 µL CTG solution to each well, placed on a shaker for 10 minutes, and read the […] of each well.
(§5) Calculate the % Cell Viability using the following formula: %Cell Viability = 100% × (Lum_Sample−Lum_LC)/(Lum_HC−Lum_LC) [formula] • Lum_HC: Cell readings from the 0.1% DMSO control group • Lum_Sample: Cell readings with added compound • Lum_LC: Blank culture medium reading
(§6) The IC50 value was obtained by curve fitting using GraphPad Prism 8 software.

[2] = test system: A549; conditions: Homo sapiens, A549, 72 h, A549 (wild-type EGFR)
Excerpt: as §1, §2, §3, §4, §5, §6

[3] = test system: A431; conditions: Homo sapiens, A-431, 72 h, A431 (wild-type EGFR)
Excerpt: as §1, §2, §3, §4, §5, §6

[4] = test system: Baf3-19del- T790M -C797S (Baf3-DTC); conditions: 72 h
Excerpt: as §1, §2, §3, §4, §5, §6

[5] = test system: Baf3-L858R-T790M - C797S (Baf3-LTC); conditions: 72 h
Excerpt: as §1, §2, §3, §4, §5, §6

[6] = test system: H1975; conditions: Homo sapiens, NCI-H1975, 72 h, H1975 (EGFR T790M/L858R)
Excerpt: as §1, §2, §3, §4, §5, §6

[7] = test system: HCC827; conditions: Homo sapiens, HCC827, 72 h, HCC827 (exon 19 deletion)
Excerpt: as §1, §2, §3, §4, §5, §6

IC50 ([1]; class symbol)	IC50 ([1]; number after the class symbol)	IC50 ([2]; class symbol)	IC50 ([2]; number after the class symbol)	IC50 ([3]; class symbol)	IC50 ([3]; number after the class symbol)	IC50 ([4]; class symbol)	IC50 ([4]; number after the class symbol)	IC50 ([5]; class symbol)	IC50 ([5]; number after the class symbol)	IC50 ([6]; class symbol)	IC50 ([6]; number after the class symbol)	IC50 ([7]; class symbol)	IC50 ([7]; number after the class symbol)	Structure (SMILES)
100 to 1000 nM	647 nM	100 to 1000 nM	326 nM	> 1000 nM	1070 nM	< 10 nM	5.6 nM	< 10 nM	5.3 nM	100 to 1000 nM	164 nM	100 to 1000 nM	227 nM	CCc1cc(Nc2ncc(Cl)c(Nc3ccccc3P(C)(C)=O)n2)c(OC)cc1N1CCN(C(=O)CN2CCC(c3ccc4c(N5CCC(=O)NC5=O)nn(C)c4c3)C(F)(F)C2)CC1 (stereo not shown) [TC-215]
100 to 1000 nM	432 nM	100 to 1000 nM	961 nM	> 1000 nM	1610 nM	10 to 100 nM	13.5 nM	10 to 100 nM	16.7 nM	100 to 1000 nM	289 nM	100 to 1000 nM	576 nM	CCc1cc(Nc2ncc(Cl)c(Nc3ccccc3P(C)(C)=O)n2)c(OC)cc1N1CCC2(CC1)CN(C(=O)CN1CCC(c3cc4c(cc3F)c(N3CCC(=O)NC3=O)nn4C)C(F)(F)C1)C2 (stereo not shown) [TC-225]
100 to 1000 nM		100 to 1000 nM		> 1000 nM		< 10 nM		< 10 nM		100 to 1000 nM		100 to 1000 nM		CCc1cc(Nc2ncc(Br)c(Nc3ccccc3P(C)(C)=O)n2)c(OC)cc1N1CCC2(CC1)CN(C(=O)CN1CCC(c3cc4c(cc3F)c(N3CCC(=O)NC3=O)nn4C)C(F)(F)C1)C2 (stereo not shown) [TC-226]

The remaining lines, values behind:

Structure (SMILES)	IC50 ([1]; class symbol)	IC50 ([1]; number after the class symbol)	IC50 ([2]; class symbol)	IC50 ([2]; number after the class symbol)	IC50 ([3]; class symbol)	IC50 ([3]; number after the class symbol)	IC50 ([4]; class symbol)	IC50 ([4]; number after the class symbol)	IC50 ([5]; class symbol)	IC50 ([5]; number after the class symbol)	IC50 ([6]; class symbol)	IC50 ([6]; number after the class symbol)	IC50 ([7]; class symbol)	IC50 ([7]; number after the class symbol)
COc1cc(N2CCN(C(=O)CN3CCC(c4cc5c(cc4F)c(N4CCC(=O)NC4=O)nn5C)C(F)(F)C3)CC2)c(-c2cnn(C)c2)cc1Nc1ncc(Br)c(Nc2ccccc2P(C)(C)=O)n1 (stereo not shown) [TC-224]	100 to 1000 nM		100 to 1000 nM		100 to 1000 nM		< 10 nM		< 10 nM		10 to 100 nM		10 to 100 nM	
CCc1cc(Nc2ncc(Br)c(Nc3ccc(OC4CC4)cc3P(C)(C)=O)n2)c(OC)cc1N1CC2(CCN(C(=O)CN3CCC(c4cc5c(cc4F)c(N4CCC(=O)NC4=O)nn5C)C(F)(F)C3)CC2)C1 (stereo not shown) [TC-232]	100 to 1000 nM		> 1000 nM		> 1000 nM		< 10 nM		< 10 nM		10 to 100 nM		10 to 100 nM	
